Experimental data reported in BindingDB's records for patent US11938127 (Wayne State University, 2024).

Biological target: T1, Cytochrome P450 1A2 (Homo sapiens, UniProt P05177)
T1 sequence (P05177 whole entry): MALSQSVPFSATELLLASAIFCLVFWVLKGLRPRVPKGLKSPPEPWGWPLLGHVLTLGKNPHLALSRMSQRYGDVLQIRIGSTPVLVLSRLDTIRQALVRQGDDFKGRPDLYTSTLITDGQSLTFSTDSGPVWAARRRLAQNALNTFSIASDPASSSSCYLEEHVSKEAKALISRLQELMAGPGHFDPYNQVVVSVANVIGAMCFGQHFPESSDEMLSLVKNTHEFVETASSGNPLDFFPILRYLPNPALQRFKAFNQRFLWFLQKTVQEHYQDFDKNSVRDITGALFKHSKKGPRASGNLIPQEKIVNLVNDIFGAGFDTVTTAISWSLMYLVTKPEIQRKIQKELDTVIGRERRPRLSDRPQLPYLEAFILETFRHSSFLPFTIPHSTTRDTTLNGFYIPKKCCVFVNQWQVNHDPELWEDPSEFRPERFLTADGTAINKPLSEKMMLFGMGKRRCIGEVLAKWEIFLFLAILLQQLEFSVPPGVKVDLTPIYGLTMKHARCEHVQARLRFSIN
Assay: CYP1A2 Inhibition Assay
Procedure: The quenched samples were incubated at 4° C. for 10 min and centrifuged at 4° C. for 10 min.

SMILES: CC(C)(C)CN1c2cccc(O)c2C(=O)CC1c1cccc(O)c1 (stereo unspecified) [US11938127, Compound KCI838]
- IC50: 2920 nM
